Measurements as given in patent publication US20170354638A1, “BIXA ORELLANA COMPOSITION FOR THE TREATMENT MACULAR DEGENERATION” (BIOPHYTIS, priority 2011, published 2017).

Test system: primary cultures of adult porcine RPE cells
Assay: RPE cellular model of phototoxicity induced by A2E treatment followed by blue radiation illumination; cell survival
Type: cell-based
Conditions: for protective effect (cell survival vs control without A2E): concentrations of 0.1 and 1 μM, 48 h treatment, last 24 h with A2E, then blue light; for protection, percentage of survival compared to the control without A2E: 10 μM
Procedure: Given the very probable role of this mechanism in the development of AMD, the inventors used an in vitro cellular model of induced phototoxicity by the association of a treatment with A2E and illumination by blue light on RPE primary cell cultures wherein cell survival was measured. This model was developed by the Institute of Vision and allows for screening molecules aimed to discover new candidates for the treatment of dry AMD.
To test the photoprotective effect of the test substances, the inventors used a cellular model of induced phototoxicity by treatment with A2E followed by illumination with blue radiation. This model was produced from primary cultures of adult porcine RPE cells. Cell survival was determined by the ratio between the number of living cells and the total number of cells (alive+dead, respectively quantified using specific staining). Image acquisition was performed using a fluorescence microscope controlled by Metamorph software and quantifications were made by processing images acquired by a program dedicated quantification. The experiments were performed in 96-well microplates in quadruplicate and the experiment was repeated at least four times. Cells were treated for 48 hours with these compounds, the last 24 hours in the presence of A2E before induction of phototoxicity. Three concentrations (0.1, 1 and 10 μM) were tested for each compound. Some compounds were further tested at 20 μM to achieve a range of concentrations.

SMILES | protective effect (cell survival vs control without A2E) | protection, percentage of survival compared to the control without A2E | protection against phototoxicity (in words) (20 μM)
CC(/C=C/C=C(\C)C(=O)O)=C\C=C\C=C(C)\C=C\C=C(/C)C(=O)O [Crocetin] | did not show a protective effect | – | –
Oc1cc(O)c2cc(O)c(-c3ccc(O)c(O)c3)[o+]c2c1 [Cyanidin] | – | ~87% | –
O=c1oc2c(O)c(O)cc3c(=O)oc4c(O)c(O)cc1c4c23 [Ellagic acid] | did not show a protective effect | ~68% | protection similar to that measured at 10 μM
CC1=C[C@H](O)CC(C)(C)[C@H]1/C=C/C(C)=C/C=C/C(C)=C/C=C/C=C(C)/C=C/C=C(C)/C=C/C1=C(C)C[C@@H](O)CC1(C)C [Lutein, reference compound] | did not show a protective effect | – | –
O=C1C[C@@H](c2ccc(O)cc2)Oc2cc(O)cc(O)c21 [Naringenin] | did not show a protective effect | – | –
O=c1cc(-c2ccc(O)c(O)c2)oc2c([C@@H]3O[C@H](CO)[C@@H](O)[C@H](O)[C@H]3O)c(O)cc(O)c12 [Orientin] | did not show a protective effect | – | –
Oc1ccc(C=Cc2cc(O)cc(O)c2)cc1 [Resveratrol, reference compound] | did not show a protective effect | – | –
CC1=C(/C=C/C(C)=C/C=C/C(C)=C/C=C/C=C(C)/C=C/C=C(C)/C=C/C2=C(C)C[C@@H](O)CC2(C)C)C(C)(C)C[C@H](O)C1 [Zeaxanthin, reference compound] | did not show a protective effect | – | –
